Assay results: PMC5584254, “Identification of novel small molecule Beclin 1 mimetics activating autophagy” (Oncotarget, 2017)
Counter-ions that a name gives are not always drawn.

Key:
[1] = target: T1, Bcl-xL-Beclin 1 20-mer complex (Homo sapiens, UniProt Q07817); experiment: FP competitive binding assay (disruption of Bcl-xL-20-mer complex); conditions: 2.5 μM Bcl-xL protein, 400 nM fluorescein-labeled 20-mer
T1 construct: made in house
Experimental: Figure 1 FP-based HTS for Beclin 1 mimetics (A) Schematic presentation of the Beclin 1 protein and sequences of five synthetic peptides modified from Beclin 1 BH3 peptide. Diagram of human Beclin 1 protein with different domains is shown in the bottom. BH3 domain is necessary and sufficient for interaction with Bcl-2/Bcl-xL. Amino acids in red are the critical residues for the binding. (B) Five fluorescein-labeled Beclin 1 BH3 peptides were tested for their binding ability to Bcl-xL protein in FP assay. Fluorescein-labeled Bak BH3 peptide was used as a positive control. Bcl-xL protein was titrated to a solution of 50 nM peptides. (C) Competitive binding assay with positive controls, ABT-263 and (–)-gossypol ((–)G). […] (D–E) HTS was performed with ~50000 compounds from Prestwick, Microsource, CMLD and Chembridge libraries. The four libraries were divided into two groups and screened separately. Compounds activity (percent of inhibition) of first screen (D) and second screen (E) were shown with Z′ value indicated on top. Plate median + 3SD was used as a threshold to determine the initial hits.
Bcl-xL protein was immobilized on the sensor chip with 10000 RU.
All N′-fluorescein-labeled peptides were purchased from Kansas State University (Manhattan, KS). […] 16mer Bak ([…]) sequence was from published literature. Bcl-xL protein (25 kDa, > 90% pure based on SDS–PAGE) was expressed and purified in Protein Product Group, University of Kansas. FP assays were carried out as described in our previous publication with some modified. […] Then, fluorescein-labeled peptide was added to each well with a final concentration of 50 nM and incubated at room temperature for 30 min. Anisotropy measurements were taken at room temperature using a BioTek Synergy H4 plate reader (Biotek, Winooski, VT) following the protocol recommended by the manufacture. The Kd was estimated by nonlinear regression to a one-site binding model using GraphPad Prism 5.0 (GraphPad, San Diego, CA). […] Compound solvent DMSO only was used as a negative control in the competition assay. After 2 h incubation, the plate was read and polarization was calculated.

[2] = tested on: PC-3 and PC-3a prostate cancer cells; experiment: Western blot of autophagy markers (LC3 conversion, P62); format: cell-based, Human; conditions: 24 h treatment
Experimental: Figure 5 Acridine compounds induce autophagy in prostate cancer cells (A) LC3-II conversion in western blot analysis indicated the activity of autophagy. Cells were treated with DMSO or compounds for 24 h, and then lysed and processed for western blot analysis of LC3. (–)G and EBSS were used as positive controls. […] Yellow puncta indicate autophagosome (overlay of red and green fluorescence); red puncta indicate autolysosome (due to green fluorescence quenching at the acidic condition). Cells expressing RFP-GFP-LC3 were treated with compounds A13, A15 or A21 at indicated concentration for 24 h.
Figure 8 Acridine compounds induce autophagy in PC-3 and PC-3a cancer cells LC3-II conversion in western blot analysis indicated the activity of autophagy. Cells were treated with DMSO or compounds for 24 h, and then lysed and processed for western blot analysis of LC3. (–)G and EBSS were used as positive controls.
(§1) Human prostate cancer cell lines PC-3 and DU145, were purchased from American Type Culture Collection (ATCC) and used within 50 passages. PC-3a is a derivative of PC-3 that is resistant to chemo/radiotherapy, established in our lab and confirmed by genotyping. All cells were maintained in DMEM (Mediatech, Manassas, VA) supplemented with 10% fetal bovine serum (FBS) (Sigma-Aldrich, St. Louis, MO), 1% Glutamine (Mediatech, Manassas, VA), 1% antibiotics (Mediatech, Manassas, VA). Compounds for primary FP-based HTS screening were from Prestwick, Microsource, University of Kansas Center of Excellence in Chemical Methodologies & Library Development (KU CMLD, Lawrence, KS), and Chembridge libraries. Compounds for MTT and SPR validation experiment were purchased from Microsource (Gaylordsville, CT) and Hit2lead Company (San Diego, CA). Acridine analogues, compound 1–6, were from our in-house library (provided by Specialized Chemistry Center, University of Kansas, Lawrence, KS); compound 7–17 were synthesized as described in supplementary information. (–)-Gossypol was isolated from racemic gossypol as we previously described. ABT-263 and DMSO were purchased from Sigma. MTT-based cytotoxicity assay and western blot analysis was carried out according to our previous publications. The primary antibodies used were LC3B (#2775) (Cell signaling Technology, Danvers, MA) and β-actin (A5441) (Sigma).

DU145 = experiment: MTT-based cytotoxicity assay, DU145; conditions: Homo sapiens, DU-145, averages of at least two independent experiments, read-out: Cytotoxicity in different cell lines (IC50, μM) DU145
Text: as §1

T1 sequence (Q07817 whole entry, one chain of several): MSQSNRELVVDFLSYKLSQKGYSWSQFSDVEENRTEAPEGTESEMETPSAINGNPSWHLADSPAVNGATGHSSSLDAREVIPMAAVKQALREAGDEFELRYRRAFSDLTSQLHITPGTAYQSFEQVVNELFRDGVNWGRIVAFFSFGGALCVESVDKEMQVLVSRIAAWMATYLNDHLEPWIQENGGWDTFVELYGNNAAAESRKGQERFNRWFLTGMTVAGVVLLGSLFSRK

IC50 [1] [µM] | Ki [1] [µM] | SMILES | LC3-I to LC3-II conversion [2] | IC50 (DU145) [µM]
4.84 | 0.84 | Nc1ccc2cc3ccc(N)cc3nc2c1 [Compound A13, PROFLAVINE HEMISULFATE] | Increased level of LC3-II | 0.81 ± 0.51
102 | 28 | CCOc1ccc2nc3cc(N)ccc3c(N)c2c1 [Compound A15, ETHACRIDINE LACTATE] | Increased level of LC3-II | 10.5 ± 1.11
48.7 | 13.2 | CCN(CC)CCCC(C)Nc1c2ccc(Cl)cc2nc2ccc(OC)cc12 (stereo not drawn) [Compound A21, QUINACRINE HYDROCHLORIDE] | Increased level of LC3-II | 2.31 ± 0.39
